Measured values reported in patent US11261196B2, “Salt serving as AKT inhibitor and crystal thereof” (HARBIN ZHENBAO PHARMACEUTICAL CO., LTD., priority 2017, dated 2022).

Test: Stability test of the crystal form (accelerated conditions, HPLC related substances)
Format: physicochemical
Experimental: […] The sample was analyzed after 10 days, 1 month and 2 months.
1.2 Preparation of Diluent and Mobile Phase
Diluent: acetonitrile:water (1:1) was used as diluent
For example: 100 mL of pure water and 100 mL of pure acetonitrile were mixed in a glass bottle, followed by degassing with ultrasound for 10 minutes, then cooled down to room temperature.
Mobile phase A: 0.1% phosphoric acid aqueous solution
For example: 2.0 mL phosphoric acid was added into 2000 mL water, followed by ultrasound treatment for 10 minutes, the solution was mixed well and cooled down to room temperature as mobile phase A.
Mobile phase B: acetonitrile
Acetonitrile was used as mobile phase B.
1.3 Preparation of the Reference Solution (0.25 mg/mL Calculated by the Free Base)
The sample of the 0th day was used as reference sample, 16 mL of diluent was added thereto, followed by ultrasound treatment for 5 minutes, and the solution was mixed well. Then the solution was further subjected to 1-fold dilution and marked as STD-1 and STD-2, respectively.
1.4 Preparation of Sample Solution for Testing Sensitivity
Reference solution STD-1 (the sample of the 0th day) was subjected to 2000-fold dilution, noted as LOQ.
1.5 Preparation of the Sample Solution (0.25 mg/mL Calculated by the Freebase)
The sample was taken out and restored to room temperature and 16 mL diluent was added for dissolution. The solution was further subjected to 1-fold dilution to be used as sample solution to detect the content of related substances.

- Impurity content, RRT 0.95 (40° C./75%RH, 1M): 0.05%
- Impurity content, RRT 0.98 (40° C./75%RH, 1M): 0.10%
- Impurity content, RRT 0.99 (40° C./75%RH, 1M): 1.36%
- Impurity content, RRT 1.02 (40° C./75%RH, 1M): 0.22%
- Impurity content, RRT 1.04 (40° C./75%RH, 1M): 0.05%
- Impurity content, RRT 1.06 (40° C./75%RH, 1M): 0.05%
- Impurity content, RRT 1.21 (40° C./75%RH, 1M): 1.50%
- Impurity content, RRT 1.26 (40° C./75%RH, 1M): 0.07%
- TRS (total impurity content) (40° C./75%RH, 1M): 3.38%
- Impurity content, RRT 0.95 (40° C./75%RH, 2M): 0.04%
- Impurity content, RRT 0.98 (40° C./75%RH, 2M): 0.10%
- Impurity content, RRT 0.99 (40° C./75%RH, 2M): 1.31%
- Impurity content, RRT 1.02 (40° C./75%RH, 2M): 0.20%
- Impurity content, RRT 1.04 (40° C./75%RH, 2M): 0.04%
- Impurity content, RRT 1.06 (40° C./75%RH, 2M): 0.09%
- Impurity content, RRT 1.21 (40° C./75%RH, 2M): 1.44%
- Impurity content, RRT 1.26 (40° C./75%RH, 2M): 0.06%
- Impurity content, RRT 1.43 (40° C./75%RH, 2M): 0.09%
- TRS (total impurity content) (40° C./75%RH, 2M): 3.37%
- Impurity content, RRT 0.98 (40° C./75%RH, 10D): 0.10%
- Impurity content, RRT 0.99 (40° C./75%RH, 10D): 1.40%
- Impurity content, RRT 1.02 (40° C./75%RH, 10D): 0.24%
- Impurity content, RRT 1.04 (40° C./75%RH, 10D): 0.04%
- Impurity content, RRT 1.21 (40° C./75%RH, 10D): 1.50%
- Impurity content, RRT 1.26 (40° C./75%RH, 10D): 0.06%
- TRS (total impurity content) (40° C./75%RH, 10D): 3.35%
- Impurity content, RRT 0.95 (60° C./75%RH, 1M): 0.05%
- Impurity content, RRT 0.98 (60° C./75%RH, 1M): 0.10%
- Impurity content, RRT 0.99 (60° C./75%RH, 1M): 1.27%
- Impurity content, RRT 1.02 (60° C./75%RH, 1M): 0.19%
- Impurity content, RRT 1.04 (60° C./75%RH, 1M): 0.08%
- Impurity content, RRT 1.06 (60° C./75%RH, 1M): 0.34%
- Impurity content, RRT 1.21 (60° C./75%RH, 1M): 1.44%
- Impurity content, RRT 1.26 (60° C./75%RH, 1M): 0.10%
- TRS (total impurity content) (60° C./75%RH, 1M): 3.57%
- Impurity content, RRT 0.95 (60° C./75%RH, 2M): 0.04%
- Impurity content, RRT 0.98 (60° C./75%RH, 2M): 0.10%
- Impurity content, RRT 0.99 (60° C./75%RH, 2M): 1.22%
- Impurity content, RRT 1.02 (60° C./75%RH, 2M): 0.24%
- Impurity content, RRT 1.04 (60° C./75%RH, 2M): 0.08%
- Impurity content, RRT 1.06 (60° C./75%RH, 2M): 0.45%
- Impurity content, RRT 1.21 (60° C./75%RH, 2M): 1.43%
- Impurity content, RRT 1.26 (60° C./75%RH, 2M): 0.10%
- Impurity content, RRT 1.33 (60° C./75%RH, 2M): 0.06%
- Impurity content, RRT 1.36 (60° C./75%RH, 2M): 0.08%
- Impurity content, RRT 1.43 (60° C./75%RH, 2M): 0.05%
- TRS (total impurity content) (60° C./75%RH, 2M): 3.85%
- Impurity content, RRT 0.98 (60° C./75%RH, 10D): 0.10%
- Impurity content, RRT 0.99 (60° C./75%RH, 10D): 1.36%
- Impurity content, RRT 1.02 (60° C./75%RH, 10D): 0.24%
- Impurity content, RRT 1.04 (60° C./75%RH, 10D): 0.07%
- Impurity content, RRT 1.06 (60° C./75%RH, 10D): 0.15%
- Impurity content, RRT 1.21 (60° C./75%RH, 10D): 1.46%
SMILES: Cc1cnn2c1-c1cc(C(=O)N[C@H](CN)Cc3cccc(F)c3)sc1CCC2.O=C(O)/C=C\C(=O)O
